Oligonucleotides are written 5' to 3', each unit as a sugar letter and its base; * is a phosphorothioate linkage, no mark a phosphodiester; rarer units and linkages stand in square brackets, end groups in braces. Plain capitals give the bases only. l = locked nucleic acid (LNA); [5mC] = 5-methylcytosine; d = 2'-deoxy (DNA)
Key:
[1] = test system: HeLa cells; test: Annexin V-FITC/PI flow cytometry analysis; assay type: cell-based, human; conditions: 5 nM or 25 nM
Method: Culturing of cells: 15PC3 was cultured in DMEM (Sigma) containing 10% fetal bovine serum, Glutamax I and gentamicin at 37° C., 95% humidity and 5% CO2. The cervical carcinoma cell line HeLa were cultured in MEM (Sigma) containing 10% fetal bovine serum, Glutamax I and gentamicin at 37° C., 95% humidity and 5% CO2. When reaching 60-70% confluency, the cells were transfected using Lipofectamine 2000 (5 μg/ml).
0.4×10^6 HeLa cells were seeded in T25 flasks one day prior to transfection. On the day of transfection, the cells were washed once in 37° C. OptiMEM followed by addition of 2.8 ml OptiMEM containing 5 μg/ml Lipofectamine-2000 (In vitrogen). Cells were incubated for 7 min before adding 700 μl oligonucleotides diluted in OptiMEM to a final concentration of 5 nM or 25 nM, Mock transfected cells served as control. After 4 hours of treatment cells were washed in OptiMEM and 3 ml culture medium was added. Following oligonucleotide treatment cells were allowed to recover for 48 hours before they were harvested by scraping and washed twice in PBS. 0.2×10^6 cells were incubated with 5 μl Annexin V-FITC and 10 μl propidium iodide (PI-10 mg/ml) and incubated for 15 min at room temperature in the dark. […] Moreover, TRAIL (Apo2L) induced HeLA cells (0.5 μg/ml) were used as positive control. (See FIG. 4)

[2] = test system: PC-3 human prostate cancer cells; test: PC3 xenograft tumour growth inhibition in nude mice; assay type: in vivo, Balb/cA-nu mice; conditions: combined with Taxol, dose schedules A and B, after 27 days, versus single agent treatment or saline
Method: Model: PC-3 human prostate cancer cells (ECACC) are mixed with Matrigel and injected s.c. into both flanks of female Balb/cA-nu mice on Day 0.
Dosing: Saline solution of SEQ ID NO. 2 according to schedule, 2 mg/ml working solution, dosing volume 10 ml/kg; Taxol was used in the clinical formulation. The animals were dosed according to the average group weight on Day 0.
Administration: Oligonucleotides i.p. (see FIG. 8) or intratumoural (see FIG. 9), Taxol i.v., all according to schedule
Observations: Mortality (daily), body weight (twice per week),
Tumour volume: During the experiment, tumour volume is measured twice per week and calculated according to the formula (L×D^2×0.5), where L represents the largest diameter and D the tumour diameter perpendicular to L (mm).
Antitumour activity: Mean tumour weight of treated tumours will be compared with control group.
End of study: The animals will be sacrificed by cervical dislocation. Tumours, livers and spleens will be weighed.

[3] = test system: complementary RNA; test: Measurement of melting temperature (Tm) of the duplex; assay type: binding; conditions: 3 μM, 10 mM sodium phosphate/100 mM NaCl/0.1 nM EDTA, pH 7.0
Method: Measurement of melting temperature (Tm) of the compounds: A 3 μM solution of SEQ ID NO. 2 in 10 mM sodium phosphate/100 mM NaCl/[…], pH 7.0 was mixed with its complement DNA/RNA 3 μM in 10 mM sodium phosphate/100 mM NaCl/[…], pH 7.0 at 90° C. for a minute and allowed to cool to room temperature. The Tm of the duplex was then determined by increasing the temperature 1° C./min. from 25 to 95° C. The Tm of SEQ ID NO.

[4] = Oligonucleotide content in cynomolgus monkey tissues (4 weeks repeat dose study); assay type: in vivo, cynomolgus monkeys; conditions: i.v. twice weekly for four weeks, then 4 weeks untreated
Method: In an i.v. 4 weeks repeat dose toxicity study in cynomolgus monkeys SEQ ID NO. 2 was administered at doses of 0, 6, 15 and 60 mg/kg/occasion twice weekly for four weeks. In the groups of animals receiving 0, 15 or 60 mg/kg/occasion some animals were followed for a recovery period of 4 weeks without treatment.
Tissues including liver and kidney samples were snap frozen and stored at −70° C. for subsequent analysis.
Tissues (˜100 mg) is weighed off (tissue is kept on dry-ice before and after weighing). 500 μl extraction buffer containing proteinase K (1 mg/ml) is added. The tissue is homogenized mechanically and the homogenate is incubated over night at 37° C.
Reference samples are prepared by dissolving SEQ ID NO. 2 in extraction buffer at the relevant concentration range. Exactly 100 mg liver tissue from un-treated animals is weighed off (kept on dry-ice before and after weighing). Extraction buffer (with proteinase K, 1 mg/ml) containing the reference material is added to the tissue samples to a total volume of 0.5 ml. The tissue is mechanically homogenized and is incubated over night at 37° C. The detection signal of SEQ ID NO. 2 from these samples is used to prepare a standard curve covering the lowest and the highest concentrations found in the treated animals.
Tissue samples are transferred to 2 ml microtubes with screw caps. […]

[5] = test system: mice; test: i.v. acute toxicity study in mice; assay type: in vivo
Description: For SEQ ID NO. 2 the following was found among others in preclinical toxicity studies: […]

5′-^MeCsTs^MeCsAsastscscsastsgsgs^MeCsAsGsc-3′ (l[5mC]*lT*l[5mC]*lA*dA*dT*dC*dC*dA*dT*dG*dG*l[5mC]*lA*lG*dC) [SEQ ID NO. 2]
Induction of early and late apoptosis (Annexin V-FITC/PI staining) [1]: dose dependent induction of early and late apoptosis | Tumour weight [2]: Tumour weight reduction | Tm (° C.) complementary RNA [3]: 75.3 °C | Content in liver of recovery animals [4]: detectable | maximum non-lethal dose [5]: 1000 mg/kg
